Experimental data reported in patent US20210380556A1, “HETEROARYLAZOLE COMPOUND AND PEST CONTROL AGENT” (Nippon Soda Co., Ltd., priority 2018, published 2021).

How the values were obtained:
[1] = system: Mythimna separata; assay: Test Example 1: efficacy on Mythimna separata (treated artificial feed); type: in vivo; conditions: 1 μl of emulsion (I) (5% active ingredient) in 0.8 g artificial feed; second instar larvae; 25° C.; fifth day
Excerpt: (§1) 5 parts of the heteroaryl azole compound of the present invention, 93.6 parts of dimethylformamide, and 1.4 parts of polyoxyethylene alkyl aryl ether were mixed and dissolved to prepare emulsion (I) containing 5% of the active ingredient.
For a control, 98.5 parts of dimethylformamide and 1.5 parts of polyoxyethylene alkyl aryl ether were mixed and dissolved to prepare emulsion (II).
(§2) Insecticidal rate (%)=(The number of dead insects/The number of tested insects)×100
0.8 g of commercially available artificial feed (Insecta LFS, manufactured by Nosan Corp.) and 1 μl of the emulsion (I) were well mixed to obtain test feed.
A plastic test container (capacity: 1.4 ml) was packed with 0.2 g of the test feed per treatment plot. Then, two second instar larvae of Mythimna separata were inoculated to each treatment plot. A plastic lid was put on the test container so as to prevent escape of the second instar larvae of Mythimna separata. The container was placed in a thermostat chamber of 25° C. On the fifth day, the insecticidal rate and the food intake were examined. The test was conducted in duplicate.
The insecticidal rate and the food intake of a control plot were examined in the same way as in Test Example 1 except that the emulsion (I) was changed to the emulsion (II).

[2] = system: Plutella xylostella; assay: Test Example 3: efficacy on Plutella xylostella (cabbage leaf dip); type: in vivo; conditions: foliar, 72 h, cabbage leaves dipped 30 seconds, second instar larvae, after 3 days, read-out: insecticidal rate
Protocol: as §1, §2
The emulsion (I) was diluted with water such that the concentration of the compound of the present invention was 125 ppm. Cabbage leaves were dipped in the dilution for 30 seconds. The resulting cabbage leaves were placed in a petri dish. Five second instar larvae of Plutella xylostella were released thereto. The petri dish was placed in a thermostat chamber having a temperature of 25° C. and a humidity of 60%. Life and death were determined after 3 days from the release of the insects, and the insecticidal rate was calculated. The test was conducted in duplicate.

[3] = system: Musca domestica; assay: Test Example 9: efficacy on Musca domestica (treated sugar cube); type: in vivo; conditions: 100 ppm per g of a cube of sugar; female adults; 25° C.; after hours (number not given)
Protocol: as §2
The compound of the present invention was diluted with acetone and added dropwise at 100 ppm per g of a cube of sugar. The cube of sugar was placed in a plastic cup. Ten female adults of Musca domestica were released, and a lid was put on the plastic cup. The plastic cup was stored at 25° C. Life and death were determined after hours from the release of the insects, and the insecticidal rate was calculated. The test was conducted in duplicate.

Compound | insecticidal rate or food intake as compared with the control plot [1] | pest or weed control at 125 ppm [2] | also measured
CCS(=O)(=O)c1cnc(-n2cnc(N)n2)nc1-c1ncc(C(F)(F)C(F)(F)C(F)(F)C(F)(F)F)n1C | – | – | melting point: 219 to 221 °C
CCS(=O)(=O)c1cc(Br)cnc1-c1nnc(C(F)(F)C(F)(F)C(F)(F)C(F)(F)F)n1C | – | – | melting point: 74 to 76 °C
CCS(=O)(=O)c1cnc(-c2ncn(C)n2)nc1-c1ncc(C(F)(F)C(F)(F)C(F)(F)F)n1C [a-1] | insecticidal rate of 100% for Mythimna separata or a food intake of 10% or less | ≥ 80% | –
CCS(=O)(=O)c1cnc(-c2ncn(C)n2)nc1-c1ncc(C(F)(F)C(F)(F)C(F)(F)C(F)(F)F)n1C [a-2, 5-(ethylsulfonyl)-2-(1-methyl-1H-1,2,4-triazol-3-yl)-4-(1-methyl-5-(perfluorobutyl)-1H-imidazol-2-yl)pyrimidine] | insecticidal rate of 100% for Mythimna separata or a food intake of 10% or less | ≥ 80% | –
CCS(=O)(=O)c1cnc(-c2ncccn2)nc1-c1ncc(C(F)(F)C(F)(F)C(F)(F)C(F)(F)F)n1C [a-4] | – | ≥ 80% | –
CCS(=O)(=O)c1cnc(-n2ncnc2N)nc1-c1ncc(C(F)(F)C(F)(F)C(F)(F)C(F)(F)F)n1C [a-6] | insecticidal rate of 100% for Mythimna separata or a food intake of 10% or less | ≥ 80% | –
CCS(=O)(=O)c1cnc(-c2ncnn2C)nc1-c1ncc(C(F)(F)C(F)(F)C(F)(F)C(F)(F)F)n1C [a-10] | – | ≥ 80% | –
CCS(=O)(=O)c1cc(-c2ncccn2)cnc1-c1ncc(C(F)(F)C(F)(F)C(F)(F)C(F)(F)F)n1C [b-4] | insecticidal rate of 100% for Mythimna separata or a food intake of 10% or less | – | insecticidal rate [3]: ≥ 80%
CCS(=O)(=O)c1cc(-c2ncccn2)cnc1-c1ncc(C(F)(F)C(F)(F)C(F)(F)F)n1C [b-19, 2-(5-(ethylsulfonyl)-6-(1-methyl-5-(perfluoropropyl)-1H-imidazol-2-yl)pyridin-3-yl)pyrimidine] | – | ≥ 80% | –
CCS(=O)(=O)c1cc(-n2cncn2)cnc1-c1ncc(C(F)(F)C(F)(F)C(F)(F)F)n1C [b-45] | insecticidal rate of 100% for Mythimna separata or a food intake of 10% or less | – | –
CCS(=O)(=O)c1cc(C2CC2)cnc1-c1ncc(C(F)C(F)(C(F)(F)F)C(F)(F)F)n1C (centres unmarked) [b-52] | insecticidal rate of 100% for Mythimna separata or a food intake of 10% or less | – | –
CCS(=O)(=O)c1cc(C2CC2)cnc1-c1ncc(C(Cl)C(F)(C(F)(F)F)C(F)(F)F)n1C (centres unmarked) [b-53] | insecticidal rate of 100% for Mythimna separata or a food intake of 10% or less | – | –
CCS(=O)(=O)c1cc(-c2ncccc2C#N)cnc1-c1ncc(C(F)(F)C(F)(F)C(F)(F)F)n1C [b-54] | insecticidal rate of 100% for Mythimna separata or a food intake of 10% or less | – | –
CCS(=O)(=O)c1cc(-c2ncccc2F)cnc1-c1ncc(C(F)(F)C(F)(F)C(F)(F)F)n1C [b-55] | insecticidal rate of 100% for Mythimna separata or a food intake of 10% or less | – | –
CCS(=O)(=O)c1cc(C2(c3ccccn3)CC2)cnc1-c1ncc(C(F)C(F)(C(F)(F)F)C(F)(F)F)n1C (centres unmarked) [b-57] | insecticidal rate of 100% for Mythimna separata or a food intake of 10% or less | – | –
CCS(=O)(=O)c1cc(-c2ccccc2F)cnc1-c1ncc(C(F)(F)C(F)(F)C(F)(F)F)n1C [b-58] | insecticidal rate of 100% for Mythimna separata or a food intake of 10% or less | – | –
CCS(=O)(=O)c1cc(-c2ccccn2)cnc1-c1ncc(C(F)(F)C(F)(F)C(F)(F)C(F)(F)F)n1C [b-59] | insecticidal rate of 100% for Mythimna separata or a food intake of 10% or less | – | –
CCS(=O)(=O)c1cc(-c2cc(F)cc(F)c2)cnc1-c1ncc(C(F)(F)C(F)(F)C(F)(F)F)n1C [b-60] | insecticidal rate of 100% for Mythimna separata or a food intake of 10% or less | – | –
CCS(=O)(=O)c1cc(-c2ncccc2F)cnc1-c1ncc(C(F)(F)C(F)(F)C(F)(F)C(F)(F)F)n1C [b-61] | insecticidal rate of 100% for Mythimna separata or a food intake of 10% or less | – | –
CCS(=O)(=O)c1cc(-c2ncccc2Cl)cnc1-c1ncc(C(F)(F)C(F)(F)C(F)(F)F)n1C [b-62] | insecticidal rate of 100% for Mythimna separata or a food intake of 10% or less | – | –
CCS(=O)(=O)c1cc(C2CC2)cnc1-c1ncc(C(F)C(F)(F)C(F)(F)C(F)(F)C(F)(F)F)n1C (centres unmarked) [b-63] | insecticidal rate of 100% for Mythimna separata or a food intake of 10% or less | – | –
CCS(=O)(=O)c1cc(-c2ncccn2)cnc1-c1ncc(C(F)C(F)(F)C(F)(F)C(F)(F)C(F)(F)F)n1C (centres unmarked) [b-64] | insecticidal rate of 100% for Mythimna separata or a food intake of 10% or less | – | –
CCS(=O)(=O)c1cc(-c2ccccn2)cnc1-c1ncc(C(F)C(F)(F)C(F)(F)C(F)(F)C(F)(F)F)n1C (centres unmarked) [b-66] | insecticidal rate of 100% for Mythimna separata or a food intake of 10% or less | – | –
CCS(=O)(=O)c1cc(OCC(F)(F)C(F)(F)F)cnc1-c1ncc(C(F)C(F)(C(F)(F)F)C(F)(F)F)n1C (centres unmarked) [b-68] | insecticidal rate of 100% for Mythimna separata or a food intake of 10% or less | – | –
CCS(=O)(=O)c1cc(OC(C)(C)C(F)(F)F)cnc1-c1ncc(C(F)C(F)(C(F)(F)F)C(F)(F)F)n1C (centres unmarked) [b-69] | insecticidal rate of 100% for Mythimna separata or a food intake of 10% or less | – | –
CCS(=O)(=O)c1cc(/C=N/OCC(F)(F)C(F)(F)F)cnc1-c1ncc(C(F)C(F)(F)C(F)(F)F)n1C (centres unmarked) [c-1] | insecticidal rate of 100% for Mythimna separata or a food intake of 10% or less | ≥ 80% | –
CCS(=O)(=O)c1cc(C2CC2)cnc1-c1nnc(C(F)(F)C(F)(F)C(F)(F)C(F)(F)F)n1C [c-4] | – | ≥ 80% | –
CCS(=O)(=O)c1cc(-c2ncccn2)cnc1-c1nnc(C(F)(F)C(F)(F)C(F)(F)C(F)(F)F)n1C [c-5] | insecticidal rate of 100% for Mythimna separata or a food intake of 10% or less | ≥ 80% | –
CCS(=O)(=O)c1cc(C2CC2)c[n+]([O-])c1-c1ncc(C(F)C(F)(C(F)(F)F)C(F)(F)F)n1C (centres unmarked) [c-8] | insecticidal rate of 100% for Mythimna separata or a food intake of 10% or less | – | –
